Measurements from the supplement of paper PMC10307832.

Experiments:
Assay in all cases: relative viability (nuclei count vs DMSO), 5 days (fraction); higher = more cells survive
NCI-H2023 = tested on: NCI-H2023
Procedure, shortened: (§1)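 Relative viability is defined as nuclei in treated wells over nuclei in vehicle wells. Duplicate plates were run and medians reported. Lung cancer cell lines in 1536-well plates were dosed by pin tool one day after seeding, with one drug or with a fixed anchor-drug dose plus five library-drug doses (not always all listed) in √10 steps, and nuclei were counted after 5 days.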

COR-L 105 = tested on: COR-L 105
Procedure, shortened: as §1

COR-L23 = tested on: COR-L23
Procedure, shortened: as §1

NCI-H1975 = tested on: NCI-H1975
Procedure, shortened: as §1

CAL-12T = tested on: CAL-12T
Procedure, shortened: as §1

NCI-H2170 = tested on: NCI-H2170
Procedure, shortened: as §1

LXF-289 = tested on: LXF-289
Procedure, shortened: as §1

HOP-62 = tested on: HOP-62
Procedure, shortened: as §1

NCI-H1651 = tested on: NCI-H1651
Procedure, shortened: as §1

NCI-H650 = tested on: NCI-H650
Procedure, shortened: as §1

NCI-H3122 = tested on: NCI-H3122
Procedure, shortened: as §1

SK-MES-1 = tested on: SK-MES-1
Procedure, shortened: as §1

LCLC-103H = tested on: LCLC-103H
Procedure, shortened: as §1

RERF-LC-KJ = tested on: RERF-LC-KJ
Procedure, shortened: as §1

PC-14 = tested on: PC-14
Procedure, shortened: as §1

NCI-H2085 = tested on: NCI-H2085
Procedure, shortened: as §1

NCI-H2087 = tested on: NCI-H2087
Procedure, shortened: as §1

NCI-H1395 = tested on: NCI-H1395
Procedure, shortened: as §1

NCI-H647 = tested on: NCI-H647
Procedure, shortened: as §1

EPLC-272H = tested on: EPLC-272H
Procedure, shortened: as §1

NCI-H596 = tested on: NCI-H596
Procedure, shortened: as §1

A-427 = tested on: A-427
Procedure, shortened: as §1

NCI-H1993 = tested on: NCI-H1993
Procedure, shortened: as §1

O=C(O)CCCCC(CCSCc1ccccc1)SCc1ccccc1 (stereo not given) [CPI-613] + CS(=O)(=O)N1CCN(Cc2cc3nc(-c4cccc5[nH]ncc45)nc(N4CCOCC4)c3s2)CC1 [Pictilisib] (partner 1 µM) was tested, and the relative viability (NCI-H2023; first compound 5 µM) was 0.233, the relative viability (NCI-H2023; first compound 15.81 µM) was 0.218 and the relative viability (NCI-H2023; first compound 50 µM) was 0.231. For the same compound, the relative viability (NCI-H2023; first compound 158.11 µM) was 0.0548, the relative viability (NCI-H2023; first compound 500 µM) was 0.0183 and the relative viability (COR-L 105; first compound 5 µM) was 0.399. For the same compound, the relative viability (COR-L 105; first compound 15.81 µM) was 0.377, the relative viability (COR-L 105; first compound 50 µM) was 0.38 and the relative viability (COR-L 105; first compound 158.11 µM) was 0.328. For the same compound, the relative viability (COR-L 105; first compound 500 µM) was 0.288, the relative viability (COR-L23; first compound 5 µM) was 0.639 and the relative viability (COR-L23; first compound 15.81 µM) was 0.689. It also gave a relative viability (COR-L23; first compound 50 µM) of 0.621, a relative viability (COR-L23; first compound 158.11 µM) of 0.393 and a relative viability (COR-L23; first compound 500 µM) of 0.007. It also gave a relative viability (NCI-H1975; first compound 5 µM) of 0.292, a relative viability (NCI-H1975; first compound 15.81 µM) of 0.225 and a relative viability (NCI-H1975; first compound 50 µM) of 0.314. For the same compound, the relative viability (NCI-H1975; first compound 158.11 µM) was 0.258, the relative viability (NCI-H1975; first compound 500 µM) was 0.0574 and the relative viability (CAL-12T; first compound 5 µM) was 0.255. The relative viability (CAL-12T; first compound 15.81 µM) was 0.393, the relative viability (CAL-12T; first compound 50 µM) was 0.453 and the relative viability (CAL-12T; first compound 158.11 µM) was 0.385. The relative viability (CAL-12T; first compound 500 µM) was 0.102, the relative viability (NCI-H2170; first compound 5 µM) was 0.293 and the relative viability (NCI-H2170; first compound 15.81 µM) was 0.307. The relative viability (NCI-H2170; first compound 50 µM) was 0.256, the relative viability (NCI-H2170; first compound 158.11 µM) was 0.293 and the relative viability (NCI-H2170; first compound 500 µM) was 0.0903. For the same compound, the relative viability (LXF-289; first compound 5 µM) was 0.716, the relative viability (LXF-289; first compound 15.81 µM) was 0.752 and the relative viability (LXF-289; first compound 50 µM) was 0.728. The relative viability (LXF-289; first compound 158.11 µM) was 0.479, the relative viability (LXF-289; first compound 500 µM) was 0.0147 and the relative viability (HOP-62; first compound 5 µM) was 0.526. The relative viability (HOP-62; first compound 15.81 µM) was 0.7, the relative viability (HOP-62; first compound 50 µM) was 0.704 and the relative viability (HOP-62; first compound 158.11 µM) was 0.496. It also gave a relative viability (HOP-62; first compound 500 µM) of 0.0332, a relative viability (NCI-H1651; first compound 5 µM) of 0.591 and a relative viability (NCI-H1651; first compound 15.81 µM) of 0.504. The relative viability (NCI-H1651; first compound 50 µM) was 0.572, the relative viability (NCI-H1651; first compound 158.11 µM) was 0.331 and the relative viability (NCI-H1651; first compound 500 µM) was 0.0986. For the same compound, the relative viability (NCI-H650; first compound 5 µM) was 0.805, the relative viability (NCI-H650; first compound 15.81 µM) was 0.861 and the relative viability (NCI-H650; first compound 50 µM) was 0.855. For the same compound, the relative viability (NCI-H650; first compound 158.11 µM) was 0.742, the relative viability (NCI-H650; first compound 500 µM) was 0.736 and the relative viability (NCI-H3122; first compound 5 µM) was 0.587. For the same compound, the relative viability (NCI-H3122; first compound 15.81 µM) was 0.614, the relative viability (NCI-H3122; first compound 50 µM) was 0.591 and the relative viability (NCI-H3122; first compound 158.11 µM) was 0.605. It also gave a relative viability (NCI-H3122; first compound 500 µM) of 0.031, a relative viability (SK-MES-1; first compound 5 µM) of 0.368 and a relative viability (SK-MES-1; first compound 15.81 µM) of 0.314. For the same compound, the relative viability (SK-MES-1; first compound 50 µM) was 0.363, the relative viability (SK-MES-1; first compound 158.11 µM) was 0.399 and the relative viability (SK-MES-1; first compound 500 µM) was 0.371. For the same compound, the relative viability (LCLC-103H; first compound 5 µM) was 0.55, the relative viability (LCLC-103H; first compound 15.81 µM) was 0.578 and the relative viability (LCLC-103H; first compound 50 µM) was 0.581. The relative viability (LCLC-103H; first compound 158.11 µM) was 0.539, the relative viability (LCLC-103H; first compound 500 µM) was 0.653 and the relative viability (RERF-LC-KJ; first compound 5 µM) was 0.455. For the same compound, the relative viability (RERF-LC-KJ; first compound 15.81 µM) was 0.496, the relative viability (RERF-LC-KJ; first compound 50 µM) was 0.605 and the relative viability (RERF-LC-KJ; first compound 158.11 µM) was 0.558. It also gave a relative viability (RERF-LC-KJ; first compound 500 µM) of 0.438, a relative viability (PC-14; first compound 5 µM) of 0.747 and a relative viability (PC-14; first compound 15.81 µM) of 0.677. The relative viability (PC-14; first compound 50 µM) was 0.637, the relative viability (PC-14; first compound 158.11 µM) was 0.725 and the relative viability (PC-14; first compound 500 µM) was 0.526. For the same compound, the relative viability (NCI-H2085; first compound 5 µM) was 0.505, the relative viability (NCI-H2085; first compound 15.81 µM) was 0.492 and the relative viability (NCI-H2085; first compound 50 µM) was 0.4. It also gave a relative viability (NCI-H2085; first compound 158.11 µM) of 0.383, a relative viability (NCI-H2085; first compound 500 µM) of 0.343 and a relative viability (NCI-H2087; first compound 5 µM) of 0.87. For the same compound, the relative viability (NCI-H2087; first compound 15.81 µM) was 0.702, the relative viability (NCI-H2087; first compound 50 µM) was 0.733 and the relative viability (NCI-H2087; first compound 158.11 µM) was 0.587. It also gave a relative viability (NCI-H2087; first compound 500 µM) of 0.0127, a relative viability (NCI-H1395; first compound 5 µM) of 0.623 and a relative viability (NCI-H1395; first compound 15.81 µM) of 0.782. The relative viability (NCI-H1395; first compound 50 µM) was 0.619, the relative viability (NCI-H1395; first compound 158.11 µM) was 0.645 and the relative viability (NCI-H1395; first compound 500 µM) was 0.51. It also gave a relative viability (NCI-H647; first compound 5 µM) of 0.58, a relative viability (NCI-H647; first compound 15.81 µM) of 0.315 and a relative viability (NCI-H647; first compound 50 µM) of 0.384. For the same compound, the relative viability (NCI-H647; first compound 158.11 µM) was 0.424, the relative viability (NCI-H647; first compound 500 µM) was 0.412 and the relative viability (EPLC-272H; first compound 5 µM) was 0.251. For the same compound, the relative viability (EPLC-272H; first compound 15.81 µM) was 0.28, the relative viability (EPLC-272H; first compound 50 µM) was 0.369 and the relative viability (EPLC-272H; first compound 158.11 µM) was 0.246. For the same compound, the relative viability (EPLC-272H; first compound 500 µM) was 0.339, the relative viability (NCI-H596; first compound 5 µM) was 0.423 and the relative viability (NCI-H596; first compound 15.81 µM) was 0.442. For the same compound, the relative viability (NCI-H596; first compound 50 µM) was 0.435, the relative viability (NCI-H596; first compound 158.11 µM) was 0.339 and the relative viability (NCI-H596; first compound 500 µM) was 0.0372. For the same compound, the relative viability (A-427; first compound 5 µM) was 0.742, the relative viability (A-427; first compound 15.81 µM) was 0.696 and the relative viability (A-427; first compound 50 µM) was 0.66. For the same compound, the relative viability (A-427; first compound 158.11 µM) was 0.613, the relative viability (A-427; first compound 500 µM) was 0.737 and the relative viability (NCI-H1993; first compound 5 µM) was 0.762. It also gave a relative viability (NCI-H1993; first compound 15.81 µM) of 0.698, a relative viability (NCI-H1993; first compound 50 µM) of 0.715 and a relative viability (NCI-H1993; first compound 158.11 µM) of 0.648. For the same compound, the relative viability (NCI-H1993; first compound 500 µM) was 0.496.
